The results in this text go back to ChEMBL document CHEMBL1134504, “Synthesis and cytotoxic activity of 7-oxo-7H-dibenz[f,ij]isoquinoline and 7-oxo-7H-benzo[e]perimidine derivatives” (J Med Chem, 2001).

Each structure is given as a SMILES string.

Assay [1] has as its system Jurkat. Nature of the assay: Ratio of IC50 against Jurkat human leukemia doxorubicin-resistant cells (JLD) to Jurkat human leukemia cells (JLC). In kind it is functional.
Assay [2] relates to Jurkat. The experiment in a line: Inhibitory activity against Jurkat human leukemia cells. In kind it is functional, cell-based.
Assay [3] has as its system Jurkat. The experiment in a line: Ratio of IC50 against Jurkat human leukemia amsacrine-resistant cells (JLA) to Jurkat human leukemia cells (JLC). The assay is classed as functional.
The next assay concerns P388. Nature of the assay: Inhibitory activity against P388 murine leukemia cells. In kind it is functional, cell-based. The conditions noted are these: Mus musculus.
Assay [4] has as its system Lewis lung carcinoma cell line. The experiment in a line: Inhibitory activity against Lewis lung carcinoma cells. The assay is classed as functional, cell-based. The conditions noted are these: Mus musculus.

Regarding `Cc1cc2c3c(cccc3n1)C(=O)c1cccc(C(=O)NCCN(C)C)c1-2`, the IC50 ratio in the assay with Jurkat [1] and with Jurkat [3] was 2.5 each time. For the same compound, the IC50 with Jurkat [2] is 424 nM; in the assay on P388, 100 nM; in assay [4], 101 nM.

For `Cc1cc2c3c(cccc3n1)C(=O)c1c(C(=O)NCCN(C)C)cccc1-2`, the IC50 ratio with Jurkat [1] was 1.1; with Jurkat [3] it was 1. In addition, the IC50 amounted to 1420 nM in the assay with Jurkat [2], 6600 nM in the assay on P388 and 1790 nM in assay [4].

For `Cc1cc2c3c(ccc(C(=O)NCCN(C)C)c3n1)C(=O)c1ccccc1-2`, the IC50 ratio with Jurkat [1] is 1; with Jurkat [3], 1.2. Also, the IC50 with Jurkat [2] was 717 nM; in the assay with P388, 890 nM; in assay [4], 717 nM.

For `CN(C)CC/N=C/c1cc2c3c(cccc3n1)C(=O)c1ccccc1-2`, the IC50 ratio is listed as 0.8 in the assay with Jurkat [1] and 0.6 with Jurkat [3]. The half-inhibitory concentration (IC50) in the assay with Jurkat [2] worked out at 3360 nM; with P388 it was 6200 nM; in assay [4], 2480 nM.

Turning to `CN(C)CCNC(=O)c1nc2c3c(cccc3n1)C(=O)c1ccccc1-2`, the IC50 ratio worked out at 0.9 in the assay with Jurkat [1] and 1 in the assay with Jurkat [3]. Further, the IC50 was 1240 nM in the assay with Jurkat [2], 1500 nM in the assay with P388 and 1030 nM in assay [4].

As for `CN(CCNC(=O)c1cc2c3c(cccc3n1)C(=O)c1ccccc1-2)CCN(C)CCNC(=O)c1cc2c3c(cccc3n1)C(=O)c1ccccc1-2`, the IC50 ratio in the assay on Jurkat [1] is on record as 0.8; with Jurkat [3] it was 0.2. Further, the IC50 with Jurkat [2] came to 566 nM; with P388 it was 790 nM; in assay [4] it was 472 nM.

As to `CN(C)CCNC(=O)c1cc2c3c(ccc(Cl)c3n1)C(=O)c1c(C(=O)NCCN(C)C)cccc1-2`, the results for the IC50 ratio with Jurkat [1] and in the assay with Jurkat [3] were 1.6 and 0.9, respectively. In addition, the IC50 in the assay with Jurkat [2] was found to be 800 nM; with P388 it was 5800 nM; in assay [4] it was 200 nM.

Regarding `O=C1c2ccccc2-c2cc(/C=N/NC3=NCCN3)nc3cccc1c23`, the results for the IC50 ratio with Jurkat [1] and with Jurkat [3] were 1.1 and 1, respectively. Besides, the results for the IC50 (in the assay with Jurkat [2]; in the assay on P388; in assay [4]) were 422 nM, 340 nM and 830 nM, respectively.

Consider `CN(C)CC(CN(C)C)c1cc2c3c(cccc3n1)C(=O)c1ccccc1-2`, for which the IC50 ratio turned out to be 1 in the assay with Jurkat [1] and 0.8 with Jurkat [3]. Further, the IC50 with Jurkat [2] is 550 nM; in the assay on P388, 110 nM; in assay [4], 98 nM.

`CN(C)CCNC(=O)c1cc2c3c(cccc3n1)C(=O)c1c(Cl)cccc1-2`: the results for the IC50 ratio in the assay on Jurkat [1] and with Jurkat [3] were 0.9 and 1, respectively. The IC50 stood at 758 nM in the assay with Jurkat [2], 800 nM with P388 and 483 nM in assay [4].

As for `CN(C)CCc1cc2c3c(cccc3n1)C(=O)c1ccccc1-2`, the IC50 ratio in the assay with Jurkat [1] and with Jurkat [3] was 0.8 each time. In addition, the IC50 in the assay with Jurkat [2] is 1010 nM; with P388 it was 2300 nM; in assay [4], 887 nM.

For the compound `CN(C)CCNc1nc2c3c(cccc3n1)C(=O)c1ccccc1-2`, the IC50 ratio in the assay on Jurkat [1] and with Jurkat [3] was 0.7 throughout. Further, the IC50 in the assay on Jurkat [2] was determined as 860 nM; with P388, 1000 nM; in assay [4] it was 525 nM.

As to `CN(C)CCNc1cc2c3c(cccc3n1)C(=O)c1ccccc1-2`, the IC50 ratio is on record as 0.9 in the assay on Jurkat [1] and 0.8 in the assay on Jurkat [3]. In addition, the results for the IC50 (in the assay with Jurkat [2]; with P388; in assay [4]) were 1160 nM, 1300 nM and 1080 nM, respectively.

Turning to `CN(C)CCNC(=O)c1cc2c3c(cccc3n1)C(=O)c1ccccc1-2`, the IC50 ratio with Jurkat [1] is on record as 0.8; in the assay on Jurkat [3], 0.2. Moreover, the IC50 in the assay with Jurkat [2] is 165 nM; with P388 it was 600 nM; in assay [4], 35 nM.

`CN(C)CCNC(=O)c1cc2c3c(cccc3n1)C(=O)c1cccc(Cl)c1-2`: the IC50 ratio was determined as 0.8 in the assay with Jurkat [1] and 0.7 in the assay on Jurkat [3]. The 50% inhibitory concentration (IC50) in the assay on Jurkat [2] was determined as 238 nM; with P388, 130 nM; in assay [4], 128 nM.

`COc1cc(NS(C)(=O)=O)ccc1Nc1c2ccccc2nc2ccccc12` [AMSACRINE]: the IC50 ratio in the assay with Jurkat [1] was found to be 74; in the assay on Jurkat [3] it was 85.

Consider `CC[C@@]1(O)C(=O)OCc2c1cc1n(c2=O)Cc2cc3ccccc3nc2-1` [CAMPTOTHECIN], for which the IC50 ratio in the assay on Jurkat [1] is listed as 1.4; with Jurkat [3] it was 2. In addition, the IC50 in the assay with Jurkat [2] is 5.6 nM; in the assay with P388, 13 nM; in assay [4] it was 33 nM.

As usually defined, the IC50 is the concentration needed to halve the response being measured. Read a high IC50 as lower potency.
